Data from US20040229954A1, “Selective manipulation of triglyceride, HDL and LDL parameters with 6-(5-carboxy-5-methyl-hexyloxy)-2,2-dimethylhexanoic acid monocalcium salt” (priority 2003, published 2004).
Marks after values point to notes of the source that are not given here.

Assay: Randomized, double-blind, placebo-controlled dose-response study of gemcabene in patients with HDL-C <35 mg/dL; percent change from baseline in serum lipids and apolipoproteins
Type: in vivo, human
Experimental: A randomized, double-blind, placebo-controlled, parallel group, dose-response, multicenter study was conducted. The study was conducted at 11 centers in the United States and one center in Canada. Institutional Review Board approval was obtained at each center and every patient was informed of the study, freely consented to participate and signed an informed consent document. Following a 6-week, single-blind placebo, dietary lead in period conducted according to National Cholesterol Education Program Step 1 Diet, eligible patients with HDL-C level <35 mg/dL (0.9 mmol/L) were stratified according to whether mean serum TG levels, calculated from measures at 2 and 4 weeks prior to randomization, were <200 mg/dL (2.3 mmol/L) or >200 mg/dL (2.3 mmol/L). Within each TG stratum, patients were randomized to receive either 150, 300, 600, or 900 mg of gemcabene or placebo daily once daily for 12 weeks.
Eligible patients were women of non-childbearing potential (naturally postmenopausal or surgically sterilized) or men 18 to 80 years of age with a baseline serum HDL-C levels <35 mg/dL. Patients were excluded if they had creatine kinase serum levels >3 times the upper limit of normal, a body mass index >35 kilogram/meter^2, uncontrolled hypertension defined as sitting diastolic blood pressure >95 mm Hg whether taking or not taking an acceptable antihypertensive medication, uncontrolled diabetes mellitus (Hemoglobin A1C>10%), hepatic dysfunction including asparate aminotransferase or alanine aminotransferase levels >2 times the upper limits of normal, renal dysfunction as defined by blood urea nitrogen or creatinine levels >2 times upper limits of normal or uncontrolled hypothyroidism (thyroid stimulating hormone >1.5 times the upper limits of normal). Also excluded were those with a prior history of known gall bladder disease or pancreatitis, a history of consuming >14 alcoholic drinks per week, or those with a known hypersensitivity to lipid-altering drugs. Patients who had myocardial infarction, severe or unstable angina pectoris, coronary artery bypass graft or any other cardiovascular event requiring hospitalization within the last 3 months were also excluded from the study. Patients were not permitted any other lipid-altering drugs during the course of the study and if on prestudy lipid-altering drug therapy, were required to undergo an additional 4-week washout period. Use of isotretinoin, insulin, warfarin, immunosuppressive agents and intermittent systemic steroids were also prohibited. Alpha-blockers, β-blockers, hormone replacement therapy and oral hypoglycemic agents were permitted provided that their use was stable for at least 3 months.
The primary efficacy parameter was percent change from baseline in serum HDL-C levels at the study subject's last visit. Other efficacy parameters included percent change from baseline in serum LDL-C, TG, apolipoproteins A-I, A-II, B, C-III, E, and non-HDL-C levels. Additionally, nuclear magnetic resonance (NMR) spectroscopy was used to assess VLDL, HDL and LDL particle sizes as well as the total concentration of LDL particles. For HDL-C, non-HDL-C, LDL-C, and TG levels, the baseline value was the mean plasma value of two measurements, one obtained 2 weeks prior to randomization and one obtained at randomization. For all other parameters, the baseline value was defined as the single measurement obtained at randomization.
All blood samples were collected following a 12-hour fast and analyzed by Medical Research Laboratories in Highland Heights, Ky. Blood samples for routine chemistry and hematology profiles were measured at screening, randomization and 4, 8, and 12 weeks following the start of study medication. Basic lipid profiles (HDL-C, LDL-C, and TG) were measured at screening, 2 and 4 weeks prior to starting study medication (during the baseline phase), at randomization, and at weeks 2, 4, 8 and 12 of the treatment phase. […]

[1] = patients with TG <200 mg/dL, 150 mg once daily for 12 weeks, mean ± SE
[2] = patients with TG <200 mg/dL, 150 mg once daily for 12 weeks, median (min, max)
[3] = patients with TG <200 mg/dL, 300 mg once daily for 12 weeks, mean ± SE
[4] = patients with TG <200 mg/dL, 300 mg once daily for 12 weeks, median (min, max)
[5] = patients with TG <200 mg/dL, 600 mg once daily for 12 weeks, mean ± SE
[6] = patients with TG <200 mg/dL, 600 mg once daily for 12 weeks, median (min, max)
[7] = patients with TG <200 mg/dL, 900 mg once daily for 12 weeks, mean ± SE
[8] = patients with TG <200 mg/dL, 900 mg once daily for 12 weeks, median (min, max)
[9] = patients with TG ≧200 mg/dL, 150 mg once daily for 12 weeks, mean ± SE
[10] = patients with TG ≧200 mg/dL, 150 mg once daily for 12 weeks, median (min, max)
[11] = patients with TG ≧200 mg/dL, 300 mg once daily for 12 weeks, mean ± SE
[12] = patients with TG ≧200 mg/dL, 300 mg once daily for 12 weeks, median (min, max)
[13] = patients with TG ≧200 mg/dL, 600 mg once daily for 12 weeks, mean ± SE
[14] = patients with TG ≧200 mg/dL, 600 mg once daily for 12 weeks, median (min, max)
[15] = patients with TG ≧200 mg/dL, 900 mg once daily for 12 weeks, mean ± SE
[16] = patients with TG ≧200 mg/dL, 900 mg once daily for 12 weeks, median (min, max)
[17] = patients with mean baseline TG≧2200 mg/dL (so in the source), 150 mg dose

Compound: CC(C)(CCCCOCCCCC(C)(C)C(=O)[O-])C(=O)[O-].[Ca+2] [gemcabene, 6-(5-carboxy-5-methyl-hexyloxy)-2,2-dimethylhexanoic acid monocalcium salt]
- levels of apolipoprotein B (both TG strata, 600 and 900 mg doses): corresponding decreases
- reduction of non-HDL-C levels (both TG strata, higher doses): up to 18%
- Percent Change from Baseline at Last Visit, Apolipoprotein A-II [1]: 5.5 ± 2.6 %
- Percent Change from Baseline at Last Visit, Apolipoprotein CIII [1]: −7.0 ± 9.2%
- Percent Change from Baseline at Last Visit, HDL-C [1]: 6.2 ± 3.1%
- Percent Change from Baseline at Last Visit, LDL-C [1]: −2.6 ± 4.4%
- Percent Change from Baseline at Last Visit, NonHDL-C [1]: −2.5 ± 4.0%
- Percent Change from Baseline at Last Visit, Apolipoprotein A-I [2]: 7.3 (−7, 40) %
- Percent Change from Baseline at Last Visit, Apolipoprotein B [2]: −0.7 (−17, 13) %
- Percent Change from Baseline at Last Visit, Apolipoprotein E [2]: −7.7 (−42, 15) %
- Percent Change from Baseline at Last Visit, TG [2]: −0.4 (−33, 32) %
- Percent Change from Baseline at Last Visit, Apolipoprotein A-II [3]: 3.3 ± 2.8%
- Percent Change from Baseline at Last Visit, Apolipoprotein CIII [3]: −14.3 ± 10.5%
- Percent Change from Baseline at Last Visit, HDL-C [3]: 5.3 ± 3.5%
- Percent Change from Baseline at Last Visit, LDL-C [3]: −5.6 ± 5.2%
- Percent Change from Baseline at Last Visit, NonHDL-C [3]: −11.6 ± 4.2 %
- Percent Change from Baseline at Last Visit, Apolipoprotein A-I [4]: 1.3 (−11, 31) %
- Percent Change from Baseline at Last Visit, Apolipoprotein B [4]: −11.7 (−33, 2) %
- Percent Change from Baseline at Last Visit, TG [4]: −14.6 (−55, 18) %
- Percent Change from Baseline at Last Visit, Apolipoprotein A-II [5]: 7.2 ± 2.6 %
- Percent Change from Baseline at Last Visit, Apolipoprotein CIII [5]: 5.4 ± 9.0%
- Percent Change from Baseline at Last Visit, HDL-C [5]: 0.5 ± 3.2%
- Percent Change from Baseline at Last Visit, LDL-C [5]: −24.9 ± 4.6 %
- Percent Change from Baseline at Last Visit, NonHDL-C [5]: −17.6 ± 3.8 %
- Percent Change from Baseline at Last Visit, Apolipoprotein A-I [6]: 7.1 (−7, 89) %
- Percent Change from Baseline at Last Visit, TG [6]: 6.4 (−45, 97) %
- Percent Change from Baseline at Last Visit, Apolipoprotein A-II [7]: 6.5 ± 2.5 %
- Percent Change from Baseline at Last Visit, Apolipoprotein CIII [7]: −9.5 ± 8.6%
- Percent Change from Baseline at Last Visit, HDL-C [7]: 5.0 ± 3.2%
- Percent Change from Baseline at Last Visit, LDL-C [7]: −15.2 ± 4.4 %
- Percent Change from Baseline at Last Visit, NonHDL-C [7]: −17.9 ± 3.6 %
- Percent Change from Baseline at Last Visit, Apolipoprotein A-I [8]: 5.5 (−11, 34) %
- Percent Change from Baseline at Last Visit, Apolipoprotein B [8]: −15.7 (−38, 21) %
- Percent Change from Baseline at Last Visit, TG [8]: −8.1 (−35, 29) %
- Percent Change from Baseline at Last Visit, Apolipoprotein A-II [9]: 5.9 ± 2.7 %
- Percent Change from Baseline at Last Visit, Apolipoprotein CIII [9]: −23.6 ± 5.7 %
- Percent Change from Baseline at Last Visit, HDL-C [9]: 17.6 ± 3.8 %
- Percent Change from Baseline at Last Visit, NonHDL-C [9]: −1.6 ± 3.6%
- Percent Change from Baseline at Last Visit, Apolipoprotein B [10]: 0.0 (−29, 33) %
- Percent Change from Baseline at Last Visit, Apolipoprotein E [10]: −20.0 (−52, 19) %
- Percent Change from Baseline at Last Visit, LDL-C [10]: 16.4 (−26,255) %
- Percent Change from Baseline at Last Visit, Apolipoprotein A-II [11]: 0.5 ± 2.6%
- Percent Change from Baseline at Last Visit, Apolipoprotein CIII [11]: −30.9 ± 5.6 %
- Percent Change from Baseline at Last Visit, HDL-C [11]: 12.3 ± 3.8%
- Percent Change from Baseline at Last Visit, NonHDL-C [11]: −9.4 ± 3.5%
- Percent Change from Baseline at Last Visit, Apolipoprotein B [12]: −6.5 (−30, 31) %
- Percent Change from Baseline at Last Visit, Apolipoprotein E [12]: −37.4** %
- Percent Change from Baseline at Last Visit, LDL-C [12]: 8.3 (−31, 252) %
- Percent Change from Baseline at Last Visit, Apolipoprotein A-II [13]: −0.8 ± 3.0%
- Percent Change from Baseline at Last Visit, Apolipoprotein CIII [13]: −6.4 ± 6.5%
- Percent Change from Baseline at Last Visit, HDL-C [13]: −0.9 ± 4.1%
- Percent Change from Baseline at Last Visit, NonHDL-C [13]: −10.9 ± 4.2%
- Percent Change from Baseline at Last Visit, Apolipoprotein B [14]: −5.7 (−34, 54) %
- Percent Change from Baseline at Last Visit, Apolipoprotein E [14]: −25.4 (−49, 18) %
- Percent Change from Baseline at Last Visit, TG [14]: −12.7 (−59, 38) %
- Percent Change from Baseline at Last Visit, Apolipoprotein A-II [15]: −4.8 ± 2.6%
- Percent Change from Baseline at Last Visit, Apolipoprotein CIII [15]: −10.8 ± 5.6%
- Percent Change from Baseline at Last Visit, HDL-C [15]: −0.9 ± 3.8%
- Percent Change from Baseline at Last Visit, NonHDL-C [15]: −16.3 ± 4.3 %
- Percent Change from Baseline at Last Visit, Apolipoprotein E [16]: −11.7 (−59, 65) %
- Percent Change from Baseline at Last Visit, TG [16]: −9.0 %
- serum HDL-C or TG levels versus placebo (patients with mean baseline TG <200 mg/dL, any dose): no significant differences
- decrease in apolipoprotein C-III [17]: 23%
- increase in level of apolipoprotein A-I [17]: 6%
- increase in level of apolipoprotein A-II [17]: 6%
- increase in serum HDL-C levels [17]: 18%
- reduction of TG serum levels [17]: 27%
- reduction of TG serum levels (patients with mean baseline TG≧2200 mg/dL (so in the source), 300 mg dose): 39%
- serum HDL-C or TG levels versus placebo (patients with mean baseline TG≧2200 mg/dL (so in the source), doses of 600 or 900 mg): No significant differences
